Results on 27 compounds are retold here after article PMC4281105 (Journal of medicinal chemistry, 2014).

Structures are written as SMILES. Like-named read-outs stand apart in the source and are kept apart here. Marks after values point to notes of the source that are not given here.

One may read the EC50 as the midpoint of the concentration-response curve.

One assay relates to RSV. Put plainly: viral titer. Particulars: for log reduction at 10 µM: human respiratory syncytial virus, read-out: viral titer reduction at 10 µM. The class given is cell-based, human respiratory syncytial virus.
Another assay has as its system hRSV strain Long. Put plainly: hRSV CPE assay. It counts as cell-based, human respiratory syncytial virus.
The mark [1] stands for this setting: human respiratory syncytial virus, HEp-2, read-out: RSV CPE potency ± standard deviation EC50, HEp-2 cells, hRSV strain Long, 10-point dose response.
[2] abbreviates: read-out: RSV CPE potency ± standard deviation EC50, HEp-2 cells, hRSV strain Long, 10-point dose response.

`COCCCNC(=O)c1ccc(Cn2c(=O)c3ccccc3n(Cc3ccc(C)cc3)c2=O)cc1` [Compound 2, N-(3-Methoxypropyl)-4-((1-(4-methylbenzyl)-2,4-dioxo-1,2-dihydroquinazolin-3(4H)-yl)methyl)benzamide]: the log reduction at 10 µM with RSV turned out to be 4.2. Further, the figures for the EC50 in the assay on hRSV strain Long (setting [1]) and in the assay with hRSV strain Long (setting [2]) were 2140 nM and 2100 ± 500 nM, respectively.

In the case of `COCCCNC(=O)c1ccc(Cn2c(=O)c3ccccc3n(Cc3ccc(Br)cc3)c2=O)cc1` [Compound 10, 4-((1-(4-Bromobenzyl)-2,4-dioxo-1,2-dihydroquinazolin-3(4H)-yl)methyl)-N-(3-methoxypropyl)benzamide], the log reduction at 10 µM in the assay on RSV was 4.1. For the same compound, in the assay on hRSV strain Long (setting [1]), the EC50 is 900 ± 200 nM.

For `COCCCNC(=O)c1ccc(Cn2c(=O)c3ccccc3n(Cc3ccc(Cl)cc3)c2=O)cc1` [Compound 13, 4-((1-(4-Chlorobenzyl)-2,4-dioxo-1,2-dihydroquinazolin-3(4H)-yl)methyl)-N-(3-methoxypropyl)benzamide], the log reduction at 10 µM in the assay on RSV stood at 3.1. For the same compound, the EC50 in the assay with hRSV strain Long (setting [1]) came to 6700 ± 1900 nM.

With `COCCCNC(=O)c1ccc(Cn2c(=O)c3ccccc3n(Cc3ccc(OC)cc3)c2=O)cc1` [Compound 14, 4-((1-(4-Methoxybenzyl)-2,4-dioxo-1,2-dihydroquinazolin-3(4H)-yl)methyl)-N-(3-methoxypropyl)benzamide], in the assay on RSV, the log reduction at 10 µM worked out at 2.7. Also, the EC50 in the assay on hRSV strain Long (setting [1]) was found to be 2000 ± 900 nM.

For `COCCCNC(=O)c1ccc(Cn2c(=O)c3ccccc3n(Cc3ccc([N+](=O)[O-])cc3)c2=O)cc1` [Compound 15, N-(3-Methoxypropyl)-4-((1-(4-nitrobenzyl)-2,4-dioxo-1,2-dihydroquinazolin-3(4H)-yl)methyl)benzamide], in the assay on RSV (compound at 10 µM), the “viral titer reduction at 10 µM” value was 5.6 ^f log. In addition, the log reduction at 10 µM with RSV was 5.6. For the same compound, the EC50 was 500 ± 50 nM in the assay on hRSV strain Long (setting [1]) and 300 to 500 nM in the assay on hRSV strain Long (human respiratory syncytial virus, RSV CPE, as given in abstract).

For `COCCCNC(=O)c1ccc(Cn2c(=O)c3ccccc3n(Cc3ccc(C(F)(F)F)cc3)c2=O)cc1` [Compound 16, 4-((2,4-Dioxo-1-(4-(trifluoromethyl)benzyl)-1,2-dihydroquinazolin-3(4H)-yl)methyl)-N-(3-methoxypropyl)benzamide], the log reduction at 10 µM with RSV came to 2.7. In addition, in the assay with hRSV strain Long (setting [1]), the EC50 was 1300 ± 100 nM.

As for `COCCCNC(=O)c1ccc(Cn2c(=O)c3ccccc3n(Cc3ccc(C#N)cc3)c2=O)cc1` [Compound 17, 4-((1-(4-Cyanobenzyl)-2,4-dioxo-1,2-dihydroquinazolin-3(4H)-yl)methyl)-N-(3-methoxypropyl)benzamide], the log reduction at 10 µM with RSV turned out to be 4.2. The EC50 in the assay with hRSV strain Long (setting [1]) is 1300 ± 200 nM.

With `CCc1ccc(Cn2c(=O)n(Cc3ccc(C(=O)NCCCOC)cc3)c(=O)c3ccccc32)cc1` [Compound 18, 4-((1-(4-Ethylbenzyl)-2,4-dioxo-1,2-dihydroquinazolin-3(4H)-yl)-methyl)-N-(3-methoxypropyl)benzamide], in the assay on RSV, the log reduction at 10 µM is 5.9. Also, in the assay on hRSV strain Long (setting [1]), the EC50 was determined as 1000 ± 50 nM.

Consider `COCCCNC(=O)c1ccc(Cn2c(=O)c3ccccc3n(Cc3ccc4nonc4c3)c2=O)cc1` [Compound 20, 4-((1-(Benzo[c][1,2,5]oxadiazol-5-ylmethyl)-2,4-dioxo-1,2-dihydroquinazolin-3(4H)-yl)methyl)-N-(3-methoxypropyl)benzamide], for which the log reduction at 10 µM with RSV came to 2.1. Besides, the EC50 with hRSV strain Long (setting [1]) is 4900 ± 700 nM.

In the case of `COCCCNC(=O)c1ccc(Cn2c(=O)c3ccccc3n(Cc3ccccn3)c2=O)cc1` [Compound 22, 4-((2,4-Dioxo-1-(pyridin-2-ylmethyl)-1,2-dihydroquinazolin-3(4H)-yl)methyl)-N-(3-methoxypropyl)benzamide], the log reduction at 10 µM with RSV worked out at 0.1. Also, the EC50 in the assay on hRSV strain Long (setting [1]) is above 50000 nM.

On to `COCCCNC(=O)c1ccc(Cn2c(=O)c3ccccc3n(Cc3cccnc3)c2=O)cc1` [Compound 23, 4-((2,4-Dioxo-1-(pyridin-3-ylmethyl)-1,2-dihydroquinazolin-3(4H)-yl)methyl)-N-(3-methoxypropyl)benzamide], for which, in the assay on RSV, the log reduction at 10 µM came to 0.9. For the same compound, the EC50 in the assay on hRSV strain Long (setting [1]) was above 50000 nM.

`COCCCCNC(=O)c1ccc(Cn2c(=O)c3ccccc3n(Cc3ccc(C)cc3)c2=O)cc1` [Compound 27, N-(4-Methoxybutyl)-4-((1-(4-methylbenzyl)-2,4-dioxo-1,2-dihydroquinazolin-3(4H)-yl)methyl)benzamide]: the log reduction at 10 µM with RSV stood at 2.1. Moreover, the EC50 in the assay on hRSV strain Long (setting [1]) was determined as 800 ± 50 nM.

Turning to `Cc1ccc(Cn2c(=O)n(Cc3ccc(C(=O)NCC4COC4)cc3)c(=O)c3ccccc32)cc1` [Compound 29, 4-((1-(4-Methylbenzyl)-2,4-dioxo-1,2-dihydroquinazolin-3(4H)-yl)methyl)-N-(oxetan-3-ylmethyl)benzamide], the log reduction at 10 µM in the assay on RSV was 5.1. In the assay on hRSV strain Long (setting [1]), the EC50 was determined as 700 ± 100 nM.

For the compound `Cc1ccc(Cn2c(=O)n(Cc3ccc(C(=O)NCC4CCC4)cc3)c(=O)c3ccccc32)cc1` [Compound 30, N-(Cyclobutylmethyl)-4-((1-(4-methylbenzyl)-2,4-dioxo-1,2-dihydroquinazolin-3(4H)-yl)methyl)benzamide], in the assay with RSV, the log reduction at 10 µM was determined as 1.2. Besides, the EC50 in the assay with hRSV strain Long (setting [1]) was determined as 1000 ± 80 nM.

Take `Cc1ccc(Cn2c(=O)n(Cc3ccc(C(=O)NC(C)(C)C)cc3)c(=O)c3ccccc32)cc1` [Compound 36, N-(tert-Butyl)-4-((1-(4-methylbenzyl)-2,4-dioxo-1,2-dihydroquinazolin-3(4H)-yl)methyl)benzamide]: the log reduction at 10 µM in the assay with RSV turned out to be 5.5. The concentration giving a half-maximal response (EC50) with hRSV strain Long (setting [1]) was found to be 700 ± 30 nM.

`Cc1ccc(Cn2c(=O)n(Cc3ccc(C(=O)Nc4ccccc4)cc3)c(=O)c3ccccc32)cc1` [Compound 38, 4-((1-(4-Methylbenzyl)-2,4-dioxo-1,2-dihydroquinazolin-3(4H)-yl)methyl)-N-phenylbenzamide]: in the assay on hRSV strain Long (setting [1]), the EC50 was above 50000 nM.

For the compound `Cc1ccc(Cn2c(=O)n(Cc3ccc(C(=O)NCc4ccccc4)cc3)c(=O)c3ccccc32)cc1` [Compound 39, N-Benzyl-4-((1-(4-methylbenzyl)-2,4-dioxo-1,2-dihydroquinazolin-3(4H)-yl)methyl)benzamide], the EC50 in the assay on hRSV strain Long (setting [1]) was above 50000 nM.

For `Cc1ccc(Cn2c(=O)n(Cc3ccc(C(=O)NCc4ccco4)cc3)c(=O)c3ccccc32)cc1` [Compound 40, N-(Furan-2-ylmethyl)-4-((1-(4-methylbenzyl)-2,4-dioxo-1,2-dihydroquinazolin-3(4H)-yl)methyl)benzamide], the EC50 in the assay with hRSV strain Long (setting [1]) was above 50000 nM.

With `Cc1ccc(Cn2c(=O)n(Cc3ccc(C(=O)Nc4nccs4)cc3)c(=O)c3ccccc32)cc1` [Compound 41, 4-((1-(4-Methylbenzyl)-2,4-dioxo-1,2-dihydroquinazolin-3(4H)-yl)methyl)-N-(thiazol-2-yl)benzamide], the EC50 in the assay on hRSV strain Long (setting [1]) is above 50000 nM.

For `Cc1ccc(Cn2c(=O)n(Cc3ccc(C(=O)Nc4ccncc4)cc3)c(=O)c3ccccc32)cc1` [Compound 42, 4-((1-(4-Methylbenzyl)-2,4-dioxo-1,2-dihydroquinazolin-3(4H)-yl)methyl)-N-(pyridin-4-yl)benzamide], in the assay with RSV, the log reduction at 10 µM was determined as 3.5. Moreover, the EC50 in the assay with hRSV strain Long (setting [1]) was determined as 1000 ± 40 nM.

In the case of `O=C(NCC1COC1)c1ccc(Cn2c(=O)c3ccccc3n(Cc3ccc([N+](=O)[O-])cc3)c2=O)cc1` [Compound 43, 4-((1-(4-Nitrobenzyl)-2,4-dioxo-1,2-dihydroquinazolin-3(4H)-yl)-methyl)-N-(oxetan-3-ylmethyl)benzamide], the “increase in capacity to reduce viral titer over hit 2” value in the assay on RSV (10 µM) is reported as at least 2 log. Further, the log reduction at 10 µM in the assay with RSV is above 6.2. Also, in the assay with hRSV strain Long (setting [1]), the EC50 was 1300 ± 50 nM.

For the compound `CC(C)c1ccc(Cn2c(=O)n(Cc3ccc(C(=O)NCC4COC4)cc3)c(=O)c3ccccc32)cc1` [Compound 44, 4-((1-(4-Isopropylbenzyl)-2,4-dioxo-1,2-dihydroquinazolin-3(4H)-yl)methyl)-N-(oxetan-3-ylmethyl)benzamide], in the assay with RSV, the log reduction at 10 µM was 5.8. In addition, the EC50 in the assay on hRSV strain Long (setting [1]) was 400 ± 10 nM.

As for `CC(C)(C)c1ccc(Cn2c(=O)n(Cc3ccc(C(=O)NCC4COC4)cc3)c(=O)c3ccccc32)cc1` [Compound 47, 4-((1-(4-tert-Butylbenzyl)-2,4-dioxo-1,2-dihydroquinazolin-3(4H)-yl)methyl)-N-(oxetan-3-ylmethyl)benzamide], in the assay on RSV, the log reduction at 10 µM was 3.4. Moreover, in the assay on hRSV strain Long (setting [1]), the EC50 worked out at 1600 ± 80 nM.

On to `CC(C)c1ccc(Cn2c(=O)n(Cc3ccc(C(=O)NCc4ccco4)cc3)c(=O)c3ccccc32)cc1` [Compound 48, N-(Furan-2-ylmethyl)-4-((1-(4-isopropylbenzyl)-2,4-dioxo-1,2-dihydroquinazolin-3(4H)-yl)methyl)benzamide], for which the log reduction at 10 µM in the assay on RSV amounted to 2.8. In the assay with hRSV strain Long (setting [1]), the EC50 stood at 1200 ± 100 nM.

On to `COc1cc(NC(=O)c2ccc(Cn3c(=O)c4ccccc4n(Cc4ccc(C(C)C)cc4)c3=O)cc2)ccn1` [Compound 50, 4-((1-(4-Isopropylbenzyl)-2,4-dioxo-1,2-dihydroquinazolin-3(4H)-yl)methyl)-N-(2-methoxypyridin-4-yl)benzamide], for which the EC50 in the assay on hRSV strain Long (setting [1]) amounted to 500 ± 60 nM.

As for `COCCCNC(=O)c1ccc(Cn2c(Cc3cccc(C(C)C)c3)nc3ccccc3c2=O)cc1` [Compound 51, 4-((2-(3-Isopropylbenzyl)-4-oxoquinazolin-3(4H)-yl)methyl)-N-(3-methoxypropyl) benzamide], the EC50 in the assay on hRSV strain Long (setting [2]) is above 50000 nM.

Regarding `COCCCNC(=O)c1ccc(Cn2c(Cc3ccc(C(C)C)cc3)nc3ccccc3c2=O)cc1` [Compound 52, 4-((2-(4-Isopropylbenzyl)-4-oxoquinazolin-3(4H)-yl)methyl)-N-(3-methoxypropyl)benzamide], the EC50 in the assay with hRSV strain Long (setting [1]) was above 50000 nM.
